Experimental data reported in the METLIN SMRT retention time set (Domingo-Almenara et al. 2019).

Test: gradient 5% acetonitrile 3 min, to 50% in 2 min, to 85% in 15 min, held 3 min, 100 µL/min
Conditions: column: Zorbax Extend-C18 2.1 x 50 mm; eluents: water / acetonitrile, 0.1% formic acid
Outline: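 Values are retention times taken from adduct peaks that software picked and an analyst inspected. The pure standards were run as mixtures of ~100 molecules on HPLC linked to a quadrupole time-of-flight mass spectrometer, in positive and negative ionization mode. A Zorbax Extend-C18 column (2.1 × 50 mm, 1.8 μm) was used at 100 μL/min with water and acetonitrile, each including 0.1% formic acid.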

RP-LC retention time [s]	SMILES
811	Cn1cc(-c2ccc(F)cc2)cc1C(=O)N1CCOCC1
604	COC(=O)c1ccc(NC(=O)CN2CCc3[nH]c4c(C)ccc(F)c4c(=O)c3C2)cc1
808	CCCn1c(=O)sc2cc(S(=O)(=O)N3CCC(C(=O)Nc4ccc(C)cn4)CC3)ccc21
844	CCN1C(=O)COc2ccc(-c3nc(NC(=O)C4CCCO4)sc3C)cc21 (centres undefined)
723	CCCCc1ccc(Nc2c(C(=O)N3CCSCC3)cnc3nc(C)ccc23)cc1
789	CCn1cc(C2=CCN(C(=O)Nc3ccc4c(c3)OCCO4)CC2)c2cccnc21
1370	COc1ccc(-c2noc(-c3cccnc3N3CCN(c4ccccc4F)CC3)n2)cc1
774	CCOC(=O)c1cnc2nc(C)ccc2c1Nc1cc(Cl)ccc1F
1240	CCC(C)(C)NS(=O)(=O)c1ccc(-c2nc(C(C)C)cs2)s1
794	O=C(CSc1nnc2c3sc(N4CCCC4)nc3ncn12)Nc1ccc(F)cc1
1010	CCc1ccc(N2CCC(C(=O)NCCc3c[nH]c4ccc(C)cc34)C2=O)cc1 (centres undefined)
762	O=C(NC1CC1)c1cn(-c2ncccc2-c2nc(-c3ccccc3)no2)cn1
559	Cc1nc(-c2ccncc2)nc2c1CCC(=O)N2Cc1ccccn1
738	O=C(Nc1cccc(-c2ccc(N3CCOCC3)nn2)c1)Nc1cc(F)ccc1F
624	Fc1ccc(F)c(-c2nc(-c3ccc4c(c3)ncn4CCN3CCCC3)no2)c1
883	CSc1cccc(NC(=O)N2CCc3c(c(-c4nc(C5CC5)no4)nn3C)C2)c1
687	Cc1oc2nc3c(c(NC(=O)CN4CCCC4=O)c2c1C)CCCC3
896	O=C(Oc1cccc([N+](=O)[O-])c1)N1CCCCC1
753	Cc1nc(N2CCN(Cc3ccc4c(c3)OCO4)CC2)nc2c1C(=O)CC(c1cccs1)C2 (centres undefined)
614	COc1ccccc1-c1nnc(-c2ccc(-n3ccnc3)nc2)o1
810	CCOC(=O)C1CCN(C(=O)C2c3ccccc3C(=O)N(C)C2c2cccs2)CC1 (centres undefined)
694	Cc1noc(C2CN(C(=O)Nc3ccccc3F)CC23CCOCC3)n1 (centres undefined)

RP-LC retention time [s]	SMILES
853	COc1ccc(-c2nc(C3CC(=O)N(c4ccc(OC)c(OC)c4)C3)no2)cc1F (centres undefined)
784	Cc1ccc(C(C)NC(=O)Cn2ccc3c(C)nn(C)c3c2=O)cc1C (centres undefined)
993	CCn1nccc1-c1cccc(-c2noc(CCS(=O)(=O)c3ccc(C)cc3)n2)c1
627	Nc1nc(Nc2ccc(F)cc2)nc2cccc(F)c12
1060	CCCn1cc(C(=O)NCC(=O)OCC)c(S(=O)(=O)N2CCN(c3cccc(Cl)c3)CC2)n1
657	COc1ccccc1NC(=O)NCC(c1cccnc1)c1c[nH]c2ccccc12 (centres undefined)
556	COCCO[C@H]1C(=O)N(C2CCN(S(=O)(=O)c3cn(C)cn3)CC2)[C@H]1c1ccncc1
757	CN[C@@H](C)C(=O)N[C@H]1CN(C(=O)CC(C)C)CC[C@H]2CC[C@@H](C(=O)NC(c3ccccc3)c3ccccc3)N2C1=O
587	CN1CCN(CCCNC(=O)CN2C(=O)CCn3nc(-c4cn(C)c5ccccc45)cc32)CC1
886	COc1cc(-c2nnc(/C=C/c3cccs3)o2)cc(OC)c1OC
617	CCCNC(=O)c1ccc2nc(CCc3ccc(NC(=O)C(C)C)cc3)[nH]c2c1
656	Cc1cccc(-c2nc3ccccn3c2NC(=O)NCc2ccccc2)c1
750	Cc1sc(NC(=O)C(C)C)nc1-c1ccc2c(c1)NC(=O)CO2
650	Cc1noc(-c2cc(=O)n(CC(=O)Nc3ccc(N(C)C)cc3)c3ccccc23)n1
1000	CCN1C(=O)c2cc(S(=O)(=O)Nc3ccccc3C)ccc2Oc2cccnc21
690	OC(CN1CCN(c2cccc(Cl)c2)CC1)c1ccc2c(c1)OCO2 (centres undefined)
913	CCN(Cc1ccccc1)S(=O)(=O)c1cc(-c2nnc(C3CCC3)o2)co1
1010	Cc1cc(=O)n(CC(=O)Nc2cc(F)ccc2F)c(-c2ccccc2)n1
915	CC1=C(c2ccc(C)c(C)c2)S(=O)(=O)N=C1N1CCCN(C(=O)CC(C)C)CC1
1060	COc1cccc(N2CCN(S(=O)(=O)c3cn(C(C)C)c4ncccc34)CC2)c1
658	CNC(=O)c1cc(=O)n(CC(=O)Nc2ccc3c(c2)OCO3)c2ccccc12
720	CCn1cc(C)c(C(=O)O)c1CC(=O)N1CCCCCC1

RP-LC retention time [s]	SMILES
578	CCC(=O)N1CCN(c2nc(C)cc(N3CCOCC3)n2)CC1
1280	COc1ccccc1NC(=O)Cn1c(=O)cc(-c2nc(C3CC3)no2)c2ccccc21
724	CC(=O)NCC(=O)N1c2ccccc2CC1c1nc(C(C)C)no1 (centres undefined)
736	Cc1cccc(-c2nnc(C)c(NCc3ccc(C)o3)n2)c1
803	Cc1cccc(NC(=O)C2CCCN(S(=O)(=O)c3cn(C(C)C)cn3)C2)c1 (centres undefined)
771	CCN(CC)c1nc(-c2ccc([N+](=O)[O-])cc2)nc2ccccc12
839	COc1ccccc1NC(=O)Cn1nc2c(Oc3ccccc3C)nccn2c1=O
1160	Cc1ccsc1C(=O)Nc1ccc(-c2nc(-c3ccccc3)co2)cc1
811	Cc1ccnc(N2CCC(C(=O)Nc3ccc(Br)cc3F)CC2)n1
772	NS(=O)(=O)c1ccc(NC(=O)Nc2ccc(F)cc2)cc1
670	Cc1cc(=O)n(CC(=O)Nc2cc(F)cc(F)c2)c(N2CCCC2)n1
879	COc1ccc(CCc2nc3nccc(-c4cccc(OC)c4)n3n2)cc1
717	O=c1[nH]c2ccc(NCc3ccc(-c4ccccc4Cl)o3)cc2[nH]1
876	Cn1nccc1-c1cccc(-c2noc(-c3cccnc3)n2)c1
1030	CCn1nc(C)c2c(-c3ccccc3)cc(OC(C)C(=O)Nc3ccc4c(c3)OCO4)nc21 (centres undefined)
832	COC(=O)C(C)NC(=O)NCc1cccn1Cc1ccc(Cl)cc1 (centres undefined)
716	Cc1ccc(-c2ccc(N3CCN(c4ccccn4)CC3)nn2)cc1S(=O)(=O)N1CCCCCC1
589	COC1C(=O)N(C2CCN(C(=O)c3sc(C)nc3C)CC2)C12CCOCC2 (centres undefined)
597	COCC(=O)N1CCCC(c2nc(CNC(=O)C3CCC3)cs2)C1 (centres undefined)
632	CCCN(Cc1ccc(OC)c(OC)c1)Cc1cc(=O)n2cc(Cl)ccc2n1
709	O=c1[nH]nc(SC(F)(F)C(F)(F)C(F)(F)F)c(=O)[nH]1
595	COc1ccc(CN2CCN(C(=O)CCC(=O)N3CCCn4nc(C)cc43)CC2)c(OC)c1OC

RP-LC retention time [s]	SMILES
593	CC(C)c1nnc(C2CN(Cc3cccc(C(F)(F)F)c3)CC23CCN(C)CC3)o1 (centres undefined)
585	O=C(Cn1cnc2c(nc3n2CCCCC3)c1=O)N1CCN(C2CCCCC2)CC1
669	COc1ccccc1C(CNC(=O)c1cc(=O)c2ccc(Br)cc2o1)N(C)C (centres undefined)
657	COC1CCC12CCN(C(=O)c1cnccn1)CC2 (centres undefined)
828	COc1ccc(NC(=O)N2CCCC(C)(C(=O)NCc3ccccc3)C2)cc1 (centres undefined)
698	COc1ccc(NC(=O)C2=C(C)NC(=O)NC2c2ccccc2Br)c(OC)c1 (centres undefined)
626	COc1ccccc1-c1ccc(N2CCN(C(=O)c3ccccc3Cl)CC2)nn1
690	Cc1c(F)cccc1NC(=O)N1CCC(c2cc(=O)n3nccc3n2C)CC1
640	O=C(Nc1ccc(Cl)cc1)c1cn2c(n1)CCCC2
897	O=C(CN1C(=O)CCCc2cc(S(=O)(=O)N3CCCC3)ccc21)Nc1ccc(Cl)cc1F
562	CC(C)S(=O)(=O)N1CC(N(C)Cc2cccnc2)C1
650	CCN(CC)CCNC(=O)c1ccc2cnn(Cc3ccc(F)cc3)c2c1
706	Cc1cc(S(=O)(=O)N2CCC3(CC2)CCC(O)(CN2CCCC2)CC3)ccc1Cl
789	Cc1ccc(NC(=O)CSc2nc(N3CCCCC3)nc3ccccc23)cc1F
649	Cc1cc(-c2nnc(-c3ccccc3)o2)c(C)n1CC(=O)N1CCN(c2ccccn2)CC1
721	COc1ccccc1CC(=O)Nc1ccc2c(c1)CCC(=O)N2C
1160	CCOc1ccc(-c2noc(Cn3ccn4nc(-c5ccccc5C)cc4c3=O)n2)cc1
578	Cn1cc(CC(=O)NCC#CCN2CCc3ccccc3C2)c2ccccc21
687	O=C(CCc1ccccc1)Nc1c(-c2ccc(F)cc2)nc2ccccn12
689	CCOC(=O)c1cnc2nc(C)ccc2c1Nc1cccc(F)c1

SMILES	RP-LC retention time [s]
Cc1cccc(NC(=O)N2[C@H]3CC[C@@H]2c2cnc(C)nc2C3)c1	663
COC1C(=O)N(c2cccc(F)c2)C12CCNCC2 (centres undefined)	604
Cn1cc(C(=O)C(=O)N[C@H]2CN3CCC2CC3)c2ccccc21	672
